Results taken from patent US20250313604A1, “PEPTIDE PHARMACEUTICALS FOR INSULIN RESISTANCE” (Mederis Diabetes LLC, priority 2014, published 2025).
Non-standard residues stand in square brackets, D forms with d. Residues, ends and D or L forms follow the SMILES beside them. *: point of attachment. GlcA(β-D,1-O-dodecyl) = CCCCCCCCCCCCO[C@@H]1O[C@H](C(=O)*)[C@@H](O)[C@H](O)[C@H]1O; αMeF = C[C@](N)(Cc1ccccc1)C(=O)O; Aib = CC(C)(N)C(=O)O

Experiments:
[1] = molecular target: T1, glucagon R (Homo sapiens, UniProt P47871); test: Cerep cellular assay, stimulation of cAMP levels, glucagon (human, cloned into CHO cells); format: cell-based
T1 construct: host or cells: CHO cells
T1 sequence (P47871 26-477): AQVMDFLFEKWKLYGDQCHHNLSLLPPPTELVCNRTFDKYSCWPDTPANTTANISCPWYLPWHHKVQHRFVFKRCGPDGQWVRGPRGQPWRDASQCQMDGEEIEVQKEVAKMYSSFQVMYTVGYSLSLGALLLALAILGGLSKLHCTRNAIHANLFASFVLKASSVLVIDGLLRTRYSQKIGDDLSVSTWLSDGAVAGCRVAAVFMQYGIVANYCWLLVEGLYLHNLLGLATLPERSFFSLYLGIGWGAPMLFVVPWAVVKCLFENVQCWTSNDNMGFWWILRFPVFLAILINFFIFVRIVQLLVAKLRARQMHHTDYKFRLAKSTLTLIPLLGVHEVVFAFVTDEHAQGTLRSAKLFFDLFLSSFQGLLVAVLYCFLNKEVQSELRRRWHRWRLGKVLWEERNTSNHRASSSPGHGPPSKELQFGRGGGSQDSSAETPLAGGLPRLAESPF
Protocol: Compounds were weighed precisely in an amount of approximately 1 mg and assayed in standard cellular assays (Cerep SA). The readout is the amount of cAMP generated in the cells treated with the test compounds, in either agonist or antagonist mode. […] The assays are described in Chicchi, G. G., et al. (1997) J Biol Chem 272:7765-7769 and Runge, S., et al. (2003) Br J Pharmacol 138:787-794.

[2] = Plasma protease stability; format: in vitro ADME; conditions: incubation at 30 degC, t=0-8 hrs, LC-MS (FIG. 8)
Protocol: Standard and QC Sample Preparation: i. […] Make standard working solutions in 50% CH3CN with the stock solution. […] Spiked 10 μL of the working solutions into 90 μL blank plasma and vortex them, iv. […] Transfer the supernatant into an HPLC injection plate for loading on the HPLC column, vi.

[3] = test system: db/db mice; test: In vivo assay in db/db mice (blood glucose, body weight, food consumption)

Row | amount of intact compound in the human plasma versus time [2] | SMILES | GLCR cellular response [1] | db/db mice - Mean Blood Glucose ([3]; 250 nmole/kg s.c., 0 hr) [mg/dL] | db/db mice - Mean Blood Glucose ([3]; 250 nmole/kg s.c., 10 hr) [mg/dL] | db/db mice - Mean Blood Glucose ([3]; 250 nmole/kg s.c., 24 hr) [mg/dL] | db/db mice - Mean Blood Glucose ([3]; 250 nmole/kg s.c., 48 hr) [mg/dL] | db/db mice - Mean Blood Glucose ([3]; 50 nmole/kg s.c., 0 hr) [mg/dL] | db/db mice - Mean Blood Glucose ([3]; 50 nmole/kg s.c., 10 hr) [mg/dL] | db/db mice - Mean Blood Glucose ([3]; 50 nmole/kg s.c., 24 hr) [mg/dL] | db/db mice - Mean Blood Glucose ([3]; 50 nmole/kg s.c., 48 hr) [mg/dL]
1 |  | CCCCCCCCCCCCO[C@@H]1O[C@H](C(=O)NCCCC[C@H](NC(=O)C(C)(C)NC(=O)[C@H](CC(=O)O)NC(=O)[C@H](CC(C)C)NC(=O)[C@H](Cc2ccc(O)cc2)NC(=O)[C@H](CCCCN)NC(=O)[C@H](CO)NC(=O)[C@H](Cc2ccc(O)cc2)NC(=O)[C@H](CC(=O)O)NC(=O)[C@H](CO)NC(=O)[C@@H](NC(=O)[C@](C)(Cc2ccccc2)NC(=O)[C@@H](NC(=O)CNC(=O)[C@H](CCC(N)=O)NC(=O)C(C)(C)NC(=O)[C@@H](N)Cc2c[nH]cn2)[C@@H](C)O)[C@@H](C)O)C(N)=O)[C@@H](O)[C@H](O)[C@H]1O [EU-A391] (H-H[Aib]QGT[αMeF]TSDYSKYLD[Aib]K(GlcA(β-D,1-O-dodecyl))-NH2; N-terminus assumed) | does not change |  |  |  |  |  |  |  | 
2 | essentially no change over 8 hrs | CCCCCCCCCCCCO[C@@H]1O[C@H](C(=O)NCCCC[C@H](NC(=O)[C@@H](NC(=O)[C@H](Cc2ccccc2)NC(=O)[C@H](CCC(=O)O)NC(=O)[C@@H]2CCCCNC(=O)CC[C@H](NC(=O)[C@H](CC(=O)O)NC(=O)[C@H](CC(C)C)NC(=O)[C@H](Cc3ccc(O)cc3)NC(=O)[C@H](CCCCN)NC(=O)[C@H](CO)NC(=O)[C@H](Cc3ccc(O)cc3)NC(=O)[C@H](CC(=O)O)NC(=O)[C@H](CO)NC(=O)[C@@H](NC(=O)[C@H](Cc3ccccc3)NC(=O)[C@@H](NC(=O)CNC(=O)[C@H](CCC(N)=O)NC(=O)C(C)(C)NC(=O)[C@@H](N)Cc3c[nH]cn3)[C@@H](C)O)[C@@H](C)O)C(=O)N[C@@H](CCC(N)=O)C(=O)N[C@@H](C)C(=O)N[C@@H](C)C(=O)N2)[C@@H](C)CC)C(=O)N[C@@H](Cc2c[nH]c3ccccc23)C(=O)N[C@@H](CC(C)C)C(=O)N[C@@H](CC(C)C)C(=O)N[C@@H](CCC(N)=O)C(=O)N[C@H](C(N)=O)[C@@H](C)O)[C@@H](O)[C@H](O)[C@H]1O [EU-A993, His1-Aib2-Gln3-Gly4-Thr5-Phe6-Thr7-Ser8-Asp9-Tyr10-Ser11-Lys12-Tyr13-Leu14-Asp15-Glu*16-Gln17-Ala18-Ala19-Lys*20-Glu21-Phe22-Ile23-Lys(N-omega(1-dodecylbeta-D-glucuronyl))24-Trp25-Leu26-Leu27-Gln28-Thr29-NH2] |  | 503 | 305 | 324 | 426 |  |  |  | 
3 | essentially no change over 8 hrs | CCCCCCCCCCCCO[C@@H]1O[C@H](CO[C@H]2O[C@H](C(=O)NCCCC[C@H](NC(=O)[C@@H](NC(=O)[C@H](Cc3ccccc3)NC(=O)[C@H](CCC(=O)O)NC(=O)[C@@H]3CCCCNC(=O)CC[C@H](NC(=O)[C@H](CC(=O)O)NC(=O)[C@H](CC(C)C)NC(=O)[C@H](Cc4ccc(O)cc4)NC(=O)[C@H](CCCCN)NC(=O)[C@H](CO)NC(=O)[C@H](Cc4ccc(O)cc4)NC(=O)[C@H](CC(=O)O)NC(=O)[C@H](CO)NC(=O)[C@@H](NC(=O)[C@H](Cc4ccccc4)NC(=O)[C@@H](NC(=O)CNC(=O)[C@H](CCC(N)=O)NC(=O)C(C)(C)NC(=O)[C@@H](N)Cc4c[nH]cn4)[C@@H](C)O)[C@@H](C)O)C(=O)N[C@@H](CCC(N)=O)C(=O)N[C@@H](C)C(=O)N[C@@H](C)C(=O)N3)[C@@H](C)CC)C(=O)N[C@@H](Cc3c[nH]c4ccccc34)C(=O)N[C@@H](CC(C)C)C(=O)N[C@@H](CC(C)C)C(=O)N[C@@H](CCC(N)=O)C(=O)N[C@H](C(N)=O)[C@@H](C)O)[C@H](O)[C@H](O)[C@H]2O)[C@@H](O)[C@H](O)[C@H]1O [EU-A1023, His1-Aib2-Gln3-Gly4-Thr5-Phe6-Thr7-Ser8-Asp9-Tyr10-Ser11-Lys12-Tyr13-Leu14-Asp15-Glu*16-Gln17 Ala18-Ala19-Lys*20-Glu21-Phe22-Ile23-Lys (N-omega (1-dodecyl beta-D-melibiouronyl)) 24-Trp25-Leu26-Leu27-Gln28-Thr29-NH2] |  | 508 | 264 | 194 | 375 | 507 | 310 | 355 | 375
